Columns and labels:
[1] = design: method as in ELF screening history; conditions: ref ELF screening history, cited from earlier work; for Enzyme Active: number of ELF enzyme screens in which the compound was active; for Targets active: number of ELF screens in which the compound was active; for Enzyme Active %: share of ELF enzyme targets screened; for Targets Active %: share of all ELF targets screened
IRAP [2] = target: T1, IRAP (Homo sapiens, UniProt Q9UIQ6); assay: Thermal shift (TSA) IRAP assay; format: binding; conditions: screening hits at 30 µM, 1% DMSO
T1 construct: The screen was performed with the soluble truncated IRAP enzyme; made in house
T1 sequence (Q9UIQ6 155-1025 limits assumed): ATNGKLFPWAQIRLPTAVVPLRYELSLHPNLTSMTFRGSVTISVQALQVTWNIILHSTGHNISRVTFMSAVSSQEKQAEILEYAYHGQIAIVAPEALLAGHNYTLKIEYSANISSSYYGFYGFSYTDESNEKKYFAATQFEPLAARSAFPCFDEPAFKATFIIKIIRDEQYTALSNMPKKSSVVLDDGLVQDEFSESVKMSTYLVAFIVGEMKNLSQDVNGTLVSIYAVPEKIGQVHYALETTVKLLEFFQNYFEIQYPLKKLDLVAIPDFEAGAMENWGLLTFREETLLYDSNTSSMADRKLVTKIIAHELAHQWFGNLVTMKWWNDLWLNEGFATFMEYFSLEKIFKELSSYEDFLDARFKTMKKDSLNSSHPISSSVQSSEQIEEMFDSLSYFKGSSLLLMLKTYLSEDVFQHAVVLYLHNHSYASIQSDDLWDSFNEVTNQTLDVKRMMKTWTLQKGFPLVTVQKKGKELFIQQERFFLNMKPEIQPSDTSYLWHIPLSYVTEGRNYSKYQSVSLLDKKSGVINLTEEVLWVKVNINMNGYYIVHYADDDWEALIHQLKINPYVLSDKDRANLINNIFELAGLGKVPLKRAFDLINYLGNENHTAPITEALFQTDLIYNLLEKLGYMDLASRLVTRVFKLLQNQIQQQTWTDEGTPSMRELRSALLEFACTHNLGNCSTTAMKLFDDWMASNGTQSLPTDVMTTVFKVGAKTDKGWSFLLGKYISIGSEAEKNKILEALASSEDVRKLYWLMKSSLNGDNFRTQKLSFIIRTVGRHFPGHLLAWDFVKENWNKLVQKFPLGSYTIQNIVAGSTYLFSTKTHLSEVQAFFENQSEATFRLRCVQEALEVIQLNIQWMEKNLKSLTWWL
Source text: The Thermal shift assay (TSA) is a biophysical technique measuring protein thermal stability. The assay relies on a fluorescent dye that is quenched in an aqueous environment but fluoresces when de-solvated in non-polar environments, such as the hydrophobic pockets of proteins. The target protein is mixed with the dye and heated gradually until it becomes completely denatured; as it unfolds or melts, the dye binds to newly exposed hydrophobic regions of the protein, resulting in a significant increase in fluorescence emission detected by a PCR system. The melting temperature (Tm) is calculated from the protein melt curve, and changes in Tm (known as ΔTm) are correlated with changes in protein stability and ligand binding. […] For the TSA assay, vehicle (DMSO) or compound was dispensed into MicroAmp Endura optical qPCR plates at the desired volume using an Echo acoustic liquid handler. […] The plates were then centrifuged for 10 s at 1000 rpm and sealed with Clear PCR-compatible plate seals.

IRAP [3] = target: T1, IRAP; assay: Deselection fluorescence IRAP assay with 10 µM zinc; format: biochemical; conditions: 10 µM ZnSO4 in assay buffer; for IC50: read-out: Fluorescence + Zn pIC50 (converted)
Description: To prepare the assay buffer (50 mM Tris-HCl pH 7.4, 150 mM NaCl, 0.1 mM PMSF, 0.05% BSA) of the primary and orthogonal assays, 1 M Tris-HCl was prepared by dissolving 60.57 g Trizma-base (Mw 121.14 g/mol) (Sigma 93362-250G) in 500 mL MQ water, and the pH was adjusted to 7.4 using 4 M HCl. The solution was filtered with a 0.45 μm filter and stored at room temperature (RT). Then, 2 M NaCl stock was prepared by dissolving 29.22 g NaCl (Mw 58.44 g/mol) (Sigma S7653-250G) in 250 mL MQ water. The solution was filtered with a 0.45 μm filter and stored at RT. Next, 100 mM Phenylmethanesulfonylfluoride (PMSF) stock was prepared by dissolving 1 g PMSF (Mw 174.19 g/mol) (Sigma 78830-1G) in 57.4 mL isopropanol (Sigma I9516-500ML) and stored at 4 °C. A 10% Bovine Serum Albumin (BSA) stock solution was prepared by dissolving 2 g BSA (Mw 66.5 kDa) (Sigma A7030-50G), which was dissolved in 20 mL MQ water. The solution was filtered with a 0.45 μm filter, aliquoted, and stored at −20 °C. For the deselection assay buffer (50 mM Tris-HCl pH 7.4, 150 mM NaCl, 0.1 mM PMSF, 0.05% BSA, 10 μM ZnSO4), 1 mM ZnSO4 solution was prepared by dissolving 28.8 mg ZnSO4 (Mw 287.56 g/mol) (Sigma Z0251-100G) in 100 mL MQ water. The solution was filtered with a 0.45 μm filter and stored at RT. For the TSA assay buffer (50 mM Tris HCL, 150 mM NaCl, pH 7.4), stocks of 1 M Tris HCL and 2 M NaCl were prepared as described above.

IRAP [4] = target: T1, IRAP; assay: Orthogonal absorbance IRAP assay (L-Leucine para-nitroanilide cleavage); format: biochemical; conditions: 1 mM L-Leucine p-Nitroanilide, 120 min RT; for IC50: read-out: Absorbance pIC50 (converted)
Source text: The primary biochemical assay was developed to measure the enzymatic activity of IRAP. […] To establish an orthogonal assay, an alternative L-Leucine para-nitroanilide substrate was used, which IRAP turns over to L-Leucine and para-nitroaniline and is measurable by absorbance at 405 nm (Supplementary Figure S2B).
To ensure biochemically sound, optimal, robust, and affordable assay conditions for large-scale screening, several factors need to be considered. These include the final concentration of substrates, based on the determined substrate Km value; the assay kinetics and reaction linearity; achieving a minimal, rate limiting protein concentration; identifying optimal buffer additives and concentrations; the choice of assay plate type; the final assay volume per well; the stability of reagents; the magnitude and variance of the signal; and the potency and rank order of reference compounds. For both primary fluorescence and orthogonal absorbance assays, non-binding 1536-well assay plates were used, and 0.05% BSA was included in the assay buffer to minimize the issues associated with protein sticking to plastics. The substrate Km values were determined in two separate experiments using two different batches of IRAP protein. For this, the IRAP progress curve was monitored every 5 min for 2 h using an Envision multimode plate reader (PerkinElmer, Waltham, MA, USA). […] To evaluate if using substrate concentrations close to the determined Km values results in sufficient dynamic range within the linear range of the enzymatic reaction, Z′ and S/B were calculated for multiple time points up to 2.5 h in the presence and absence of reference compounds in both assays. The primary fluorescence assay reached an optimal Z′-value after 1 h when using 37.5 μM substrate (Supplementary Figure S5). For the absorbance, 2 h was required for the enzyme reaction time; however, using ~0.4 mM substrate was associated with increased assay variation and a poor Z′ (Supplementary Figure S6).
The orthogonal assay was performed in a black non-binding 1536-well plate (Corning 3728) and sealed with universal lids (Corning 3098). First, 20 nL of test compounds (4 mM) or 100% DMSO was dispensed into the 1536-well assay plates using an Echo acoustic liquid handler (Beckman Coulter). Then, 4 μL of protein working solution (5 × 10^−4 mg/mL) was dispensed to the negative control (min effect) and compound wells (final well concentration 2.5 × 10^−4 mg/mL) using the Certus Flex liquid dispenser (Fritz Gyger AG) and 4 μL assay buffer to the positive control wells (max effect) using the FLEXdrop (PerkinElmer). Next, 4 μL of 2 mM substrate working solution was dispensed into all wells using the FLEXdrop (final well concentration 1 mM). The assay plates were then centrifuged at 187.5× g for 30 s, incubated in the dark at RT for 120 min, and finally read on an Envision plate reader (PerkinElmer) (absorbance at 405 nm, 10 flashes per second). During the dose–response curve analysis in the orthogonal assay, 80 nL of compound (range 2.00 × 10^−3 M–2.74 × 10^−6 M) or 100% DMSO was dispensed into the assay plates using an Echo acoustic liquid handler (Beckman Coulter) with final well concentration range of 20 μM–27.4 nM compound and 1% DMSO.

IRAP [5] = target: T1, IRAP; assay: Primary fluorescence IRAP assay (L-Leucine-7-amido-4-methylcoumarin cleavage); format: biochemical; conditions: for IC50 / Fluorescence pIC50: 37.5 µM L-Leucine-7-amido-4-methylcoumarin, 60 min RT, dose-response 20 µM-27.4 nM; for IC50: read-out: Fluorescence IC50; for LipE: calculated from (pIC50Fluorescence − LogD)
Source text: The primary biochemical assay was developed to measure the enzymatic activity of IRAP.
To ensure biochemically sound, optimal, robust, and affordable assay conditions for large-scale screening, several factors need to be considered. […] For both primary fluorescence and orthogonal absorbance assays, non-binding 1536-well assay plates were used, and 0.05% BSA was included in the assay buffer to minimize the issues associated with protein sticking to plastics. The substrate Km values were determined in two separate experiments using two different batches of IRAP protein. For this, the IRAP progress curve was monitored every 5 min for 2 h using an Envision multimode plate reader (PerkinElmer, Waltham, MA, USA).
First, 10 nL of test compounds (4 mM) or 100% DMSO was dispensed into the 1536-well assay plates using an Echo acoustic liquid handler (Beckman Coulter, Brea, CA, USA). Then, 2 μL of protein working solution (5 × 10^−4 mg/mL) was dispensed to the negative control (min effect) and compound wells (final well concentration 2.5 × 10^−4 mg/mL) using a Certus Flex liquid dispenser (Fritz Gyger AG, Thun, Switzerland) and 2 μL assay buffer to the positive control wells (max effect) using a FLEXdrop (PerkinElmer, Waltham, MA, USA).
Figure S9. Reference compounds in Fluorescence IRAP assay with different end volumes in 1536-well format.
mg/ml) and 2 or 4 µL L -Leucine-7-amido-4-methylcoumarin (f.a.c.
Plates were measured on the Envision every 10 minutes for 140 minutes (data
shown up to 2 hours). %Effect was calculated using no protein as MAX effect (assay buffer was added instead of IRAP).

SMILES	ΔTm at 30 µM (IRAP [2]) [°C]	IC50 (IRAP [3]) [µM]	IC50 (IRAP [4]) [µM]	IC50 (IRAP [5]) [µM]	LipE (IRAP [5])	TSA (∆°C), thermal shift of IRAP (IRAP [2]) [°C]	Fluorescence + Zn pIC50 (IRAP [3])	Absorbance pIC50 (IRAP [4])	Fluorescence pIC50 (IRAP [5])	Enzyme Active [1]	Targets active [1]	Enzyme Active % [1] [%]	Targets Active % [1] [%]
COc1cc2c(cc1-c1cnco1)C(=O)N(C)C(C)(C=Cc1ccncc1)N2 (centres unmarked) [QHL33]				3.72	3.82	0.74	5.42	5.510	5.43	4	5	4.3	3.4
Fc1ccc(F)c(Cn2ccc3ncccc32)c1Cl [QHL31]	0			3.47	1.05		5.38	<4.70	5.46	5	8	5.3	5.3
c1scc2c(N3CCCCCC3)nc(N3CCC3)nc12 [QHL44]				6.46	1.50	0.44	5.18	< 4.70	5.19	4	6	4.3	4.0
c1ccn(CCCSc2nnc3ccc(N4CCCC4)nn23)c1 [QHL50]				18.2	2.06	0.44	4.7	5.36	4.74	7	11	8.1	7.6
Cc1cc2nc(N)n(Cc3ccccc3)c2cc1C [QHL49]				17.8	0.76	0.44	4.74	5.65	4.75	4	9	4.9	6.2

The next compounds have a lower IC50 (IRAP [5]) than those just listed; values first:

ΔTm at 30 µM (IRAP [2]) [°C]	IC50 (IRAP [3]) [µM]	IC50 (IRAP [4]) [µM]	IC50 (IRAP [5]) [µM]	LipE (IRAP [5])	TSA (∆°C), thermal shift of IRAP (IRAP [2]) [°C]	Fluorescence + Zn pIC50 (IRAP [3])	Absorbance pIC50 (IRAP [4])	Fluorescence pIC50 (IRAP [5])	SMILES	Enzyme Active [1]	Targets active [1]	Enzyme Active % [1] [%]	Targets Active % [1] [%]
0.15	5.62	15.5	3.24	1.54					CSc1[nH]c(-c2ccccc2)nc1S(=O)(=O)c1ccccc1 [QHL28]	4	6	4.3	4.0
-0.89	2.57	> 20	2.4	3.54					O=c1cc(N2CCCC2)nc2n(Cc3cc(Cl)ccc3Cl)ccn12 [QHL15]	6	10	7.1	7.1
3.55	1.23	5.75	1.26	3.57					CC(C)C(CS(=O)(=O)N1CCC(c2ccc(F)cc2Cl)C1)C(=O)NO (centres unmarked) [QHL6]	3	5	3.2	3.4
-0.15	1.95	13.8	1.91	1.68					Cc1cccc(Cl)c1CNc1ncnc2ncn(C)c12 [QHL12]	3	3	3.6	2.1
2.07	2.82	3.8	2.63	3.14					CC(C)[C@@H](CS(=O)(=O)N(C)CC1CCc2ccccc2C1)C(=O)NO (some centres unmarked) [QHL16]	4	4	5.1	2.8
0.3	3.24	> 20	2.63	2.19					Cc1cc(NC(=O)Cn2cnc3sc4c(c3c2=O)CCCC4)n(-c2ccccc2)n1 [QHL17]	4	5	4.2	3.3
1.92	1.7	3.89	1.66	2.57					NCC[C@H]1CCCCN1C(=O)Cn1nc(-c2ccc(Cl)cc2)c2c1CCCC2 [QHL11]	4	5	4.2	3.4
